We go through 15 compounds from patent publication US8431525B2, “Coelenteramide analogs” (JNC Corporation, priority 2009, dated 2013).

As usually defined, the melting point is the temperature of the solid-liquid transition.

Series [1] can be described thus: Fluorescence spectrum and fluorescence quantum yield of CTMD analogs at 750 nM (Example 1). The series is classed as physicochemical. Particulars: for Fluorescence quantum yield (PB) / λmax (PB)/nm: 67 mM phosphate buffer pH 7.4, 750 nM; for Fluorescence quantum yield (PB) / λmax (PB)/nm / λmax (MeOH)/nm / Fluorescence quantum yield (MeOH): 25° C., excited at 330 nm; for Fluorescence quantum yield (PB) / Fluorescence quantum yield (MeOH): relative to quinine sulfate 0.55; for λmax (PB)/nm / λmax (MeOH)/nm: fluorescence emission; for λmax (MeOH)/nm / Fluorescence quantum yield (MeOH): methanol, 750 nM; for fluorescence properties compared with known CTMD (c-4) or h-CTMD (c-13): from TABLE 1. The protocol: The fluorescence quantum yield of each CTMD analog synthesized was determined by the following procedure. The fluorescence spectrum was measured at 25° C. using a spectrofluorometer FP-6500 of JASCO (JASCO Corp., Tokyo). Specifically, the CTMD analog was dissolved in methanol (MeOH) or in 67 mM phosphate buffer (PB) (pH 7.4) at a final concentration of 750 nM using a quartz cell (light path length of 10 mm). Measurement was performed 3 times at the excited wavelength of 330 nm, emission/excitation band width of 3 nm, response of 0.5 second and scanning rate of 100 nm/min. The average was taken as the fluorescence spectrum of the compound. The fluorescence quantum yield was determined after the spectrum was corrected.
Quinine sulfate was used as a standard for determining the fluorescence quantum yield. After quinine sulfate (Wako Pure Chemical Industries) was dissolved in 0.1N sulfuric acid aqueous solution, measurement was performed at the excitation light of 366 nm under the conditions for fluorescence measurements described above. The relative fluorescence quantum yield (fluorescence intensity) of the compound was calculated relative to the quantum yield of quinine sulfate as being 0.55.

`CS(=O)(=O)Nc1ncc(-c2ccc(O)cc2)nc1Cc1ccccc1` [c-34, 3-Benzyl-5-(4-hydroxyphenyl)-2-(methanesulfonylamino)pyrazine]: in series [1], the “Fluorescence quantum yield (PB)” value is given as 0.096, the “λmax (PB)/nm” value is 437 nm, the “λmax (MeOH)/nm” value turned out to be 429 nm and the “fluorescence properties compared with known CTMD (c-4) or h-CTMD (c-13)” value was “different fluorescence properties”. The “Fluorescence quantum yield (MeOH)” value in series [1] stood at 0.056.

`O=S(=O)(Cc1ccccc1)Nc1ncc(-c2ccccc2)nc1Cc1ccccc1` [c-37, 3-Benzyl-2-benzylsulfonylamino-5-phenylpyrazine] came in with a melting point of 207 to 208.5 °C. Besides, in series [1], the “Fluorescence quantum yield (PB)” value came to 0.227, the “λmax (PB)/nm” value worked out at 419.5 nm, the “λmax (MeOH)/nm” value is 402.5 nm and the “fluorescence properties compared with known CTMD (c-4) or h-CTMD (c-13)” value is “different fluorescence properties”. Besides, the “Fluorescence quantum yield (MeOH)” value in series [1] was determined as 0.196.

Compound `COc1ccc(-c2cnc(NC(=O)Cc3ccccc3)c(Cc3ccccc3)n2)cc1` [c-16, 3-Benzyl-5-(4-methoxyphenyl)-2-(phenylacetylamino)pyrazine] returned a melting point of 197.5 to 202 °C. Further, in series [1], the “Fluorescence quantum yield (PB)” value is listed as 0.181, the “λmax (PB)/nm” value came to 450 nm, the “λmax (MeOH)/nm” value worked out at 415 nm and the “Fluorescence quantum yield (MeOH)” value was 0.342.

Turning to `COc1ccc(-c2cnc(N(S(=O)(=O)Cc3ccccc3)S(=O)(=O)Cc3ccccc3)c(Cc3ccccc3)n2)cc1` [c-21, 3-Benzyl-2-bis(benzylsulfonyl)amino-5-(4-methoxyphenyl)pyrazine], the melting point lay in the range of 78 to 80 °C. Moreover, in series [1], the “Fluorescence quantum yield (PB)” value is 0.059, the “λmax (PB)/nm” value is 421.5 nm, the “λmax (MeOH)/nm” value is recorded as 417 nm and the “fluorescence properties compared with known CTMD (c-4) or h-CTMD (c-13)” value is given as “different fluorescence properties”. In addition, the “Fluorescence quantum yield (MeOH)” value in series [1] stood at 0.303.

With `COc1ccc(-c2cnc(NC(C)=O)c(Cc3ccccc3)n2)cc1` [c-24, 2-Acetylamino-3-benzyl-5-(4-methoxyphenyl)pyrazine], in series [1], the “Fluorescence quantum yield (PB)” value came out at 0.199, the “λmax (PB)/nm” value is 450.5 nm, the “λmax (MeOH)/nm” value came out at 415.5 nm and the “Fluorescence quantum yield (MeOH)” value is reported as 0.345.

Regarding `O=C(Cc1ccccc1)Nc1ncc(-c2ccc(O)cc2)nc1Cc1ccccc1` [c-13, 3-Benzyl-5-(4-hydroxyphenyl)-2-(phenylacetylamino)pyrazine], the melting point lay in the range of 259 to 261 °C. Further, in series [1], the “Fluorescence quantum yield (PB)” value was found to be 0.003, the “λmax (PB)/nm” value was 399 nm, the “λmax (MeOH)/nm” value is 424.5 nm and the “Fluorescence quantum yield (MeOH)” value turned out to be 0.010.

`Cc1ccc(S(=O)(=O)Nc2ncc(-c3ccc(O)cc3)nc2Cc2ccccc2)cc1` [c-35, 3-Benzyl-5-(4-hydroxyphenyl)-2-[(4-methylphenyl)sulfonylamino]pyrazine] yielded a melting point of 181 to 182.5 °C. In series [1], the “Fluorescence quantum yield (PB)” value came to 0.107, the “λmax (PB)/nm” value came out at 435 nm, the “λmax (MeOH)/nm” value worked out at 430.5 nm and the “fluorescence properties compared with known CTMD (c-4) or h-CTMD (c-13)” value is listed as “different fluorescence properties”. In addition, in series [1], the “Fluorescence quantum yield (MeOH)” value is reported as 0.069.

For `CC(=O)Oc1ccc(-c2cnc(N(S(=O)(=O)c3ccc([N+](=O)[O-])cc3)S(=O)(=O)c3ccc([N+](=O)[O-])cc3)c(Cc3ccccc3)n2)cc1` [c-40, 5-(4-Acetoxyphenyl)-3-benzyl-2-bis(4-nitrophenylsulfonyl)aminopyrazine], the melting point was 227 to 229.5 °C (dec.). Besides, in series [1], the “Fluorescence quantum yield (PB)” value is on record as 0.021, the “λmax (PB)/nm” value is 415 nm, the “λmax (MeOH)/nm” value is 407.5 nm and the “fluorescence properties compared with known CTMD (c-4) or h-CTMD (c-13)” value is “different fluorescence properties”. In addition, in series [1], the “Fluorescence quantum yield (MeOH)” value is 0.004.

In turn, `COc1ccc(-c2cnc(NS(=O)(=O)Cc3ccccc3)c(Cc3ccccc3)n2)cc1` [c-18, 3-Benzyl-2-benzylsulfonylamino-5-(4-methoxyphenyl)pyrazine] came in with a melting point of 213 to 215 °C. In addition, in series [1], the “Fluorescence quantum yield (PB)” value is on record as 0.147, the “λmax (PB)/nm” value was 429 nm, the “λmax (MeOH)/nm” value was determined as 416.5 nm and the “fluorescence properties compared with known CTMD (c-4) or h-CTMD (c-13)” value is listed as “different fluorescence properties”. Besides, in series [1], the “Fluorescence quantum yield (MeOH)” value was 0.293.

Compound `CC(=O)Oc1ccc(-c2cnc(N)c(Cc3ccccc3)n2)cc1` [c-19, 5-(4-Acetoxyphenyl)-2-amino-3-benzylpyrazine] had a melting point of 183.5 to 185.5 °C.

With `CC(=O)Nc1ncc(-c2ccc(OC(C)=O)cc2)nc1Cc1ccccc1` [c-33, 5-(4-Acetoxyphenyl)-2-acetylamino-3-benzylpyrazine], the melting point is 215.5 to 217 °C (dec.). In series [1], the “Fluorescence quantum yield (PB)” value was 0.154, the “λmax (PB)/nm” value came to 384 nm, the “λmax (MeOH)/nm” value stood at 375 nm and the “Fluorescence quantum yield (MeOH)” value turned out to be 0.085.

For the compound `COc1ccc(-c2cnc(NC(=S)Cc3ccccc3)c(Cc3ccccc3)n2)cc1` [c-17, 3-Benzyl-5-(4-methoxyphenyl)-2-(phenylthioacetylamino)pyrazine], the melting point was 45 to 47 °C. In series [1], the “Fluorescence quantum yield (PB)” value is recorded as 0.003, the “λmax (PB)/nm” value was determined as 445 nm, the “λmax (MeOH)/nm” value is reported as 417.5 nm and the “fluorescence properties compared with known CTMD (c-4) or h-CTMD (c-13)” value is recorded as “different fluorescence properties”. Moreover, the “Fluorescence quantum yield (MeOH)” value in series [1] was found to be 0.003.

With `O=S(=O)(Cc1ccccc1)N(c1ncc(-c2ccccc2)nc1Cc1ccccc1)S(=O)(=O)Cc1ccccc1` [c-42, 3-Benzyl-2-bis(benzylsulfonyl)amino-5-phenylpyrazine], the melting point was in the range of 71.5 to 74.5 °C. Besides, in series [1], the “Fluorescence quantum yield (PB)” value was 0.011, the “λmax (PB)/nm” value is listed as 420.5 nm, the “λmax (MeOH)/nm” value was determined as 398.5 nm and the “fluorescence properties compared with known CTMD (c-4) or h-CTMD (c-13)” value is given as “different fluorescence properties”. Besides, in series [1], the “Fluorescence quantum yield (MeOH)” value came out at 0.180.

The compound `CC(=O)Oc1ccc(-c2cnc(NS(=O)(=O)Cc3ccccc3)c(Cc3ccccc3)n2)cc1` [c-32, 5-(4-Acetoxyphenyl)-3-benzyl-2-(benzylsulfonylamino)pyrazine] displayed a melting point of 240 to 241 °C. Also, in series [1], the “Fluorescence quantum yield (PB)” value was 0.239, the “λmax (PB)/nm” value is 420 nm, the “λmax (MeOH)/nm” value came out at 404 nm and the “fluorescence properties compared with known CTMD (c-4) or h-CTMD (c-13)” value was “different fluorescence properties”. For the same compound, in series [1], the “Fluorescence quantum yield (MeOH)” value was 0.234.

Regarding `CC(=O)Oc1ccc(-c2cnc(N(S(=O)(=O)Cc3ccc(I)cc3)S(=O)(=O)Cc3ccc(I)cc3)c(Cc3ccccc3)n2)cc1` [c-46, 5-(4-Acetoxyphenyl)-3-benzyl-2-bis(4-iodobenzylsulfonyl)aminopyrazine], the melting point was in the range of 166 to 167 °C.
